Each structure is given as a SMILES string. Substitutions are numbered along the chain they refer to. Where two headings read alike, the source gives them in different places.

Experimental findings from publication PMC2988379 (The Journal of Biological Chemistry, 2010) are described below.

What all share (experiment): intrinsic Trp fluorescence titration
Assay type in all cases: binding

In experiment [1] the target is T1, PimB′ (Corynebacterium glutamicum PimB′, NCgl2106) (Corynebacterium glutamicum, UniProt Q8NNK8, S205G).
T1 sequence (Q8NNK8 1-381 S205G): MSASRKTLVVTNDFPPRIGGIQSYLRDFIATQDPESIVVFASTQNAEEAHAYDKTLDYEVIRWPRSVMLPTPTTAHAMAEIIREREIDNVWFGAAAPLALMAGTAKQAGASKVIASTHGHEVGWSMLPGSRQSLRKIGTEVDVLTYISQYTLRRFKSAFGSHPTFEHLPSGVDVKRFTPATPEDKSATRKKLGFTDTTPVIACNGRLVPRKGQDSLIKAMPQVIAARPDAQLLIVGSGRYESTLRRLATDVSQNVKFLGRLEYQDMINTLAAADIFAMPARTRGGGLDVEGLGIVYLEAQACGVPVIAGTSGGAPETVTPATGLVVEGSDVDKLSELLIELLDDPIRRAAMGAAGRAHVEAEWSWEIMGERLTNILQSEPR

The target in experiment [2] is T2, PimB′ (Corynebacterium glutamicum PimB′, NCgl2106) (Corynebacterium glutamicum, UniProt Q8NNK8, R210S).
T2 sequence (Q8NNK8 1-381 R210S): T1 sequence (Q8NNK8 1-381 S205G) with G205S, R210S

The target in experiment [3] is T3, PimB′ (Corynebacterium glutamicum PimB′, NCgl2106) (Corynebacterium glutamicum, UniProt Q8NNK8, H118S).
T3 sequence (Q8NNK8 1-381 H118S): T1 sequence (Q8NNK8 1-381 S205G) with H118S, G205S

The target of experiment [4] is T4, PimB′ (Corynebacterium glutamicum PimB′, NCgl2106) (Corynebacterium glutamicum, UniProt Q8NNK8, G291S).
T4 sequence (Q8NNK8 1-381 G291S): T1 sequence (Q8NNK8 1-381 S205G) with G205S, G291S

Experiment [5] addresses T5, PimB′ (Corynebacterium glutamicum PimB′, NCgl2106) (Corynebacterium glutamicum, UniProt Q8NNK8, D13A).
T5 sequence (Q8NNK8 1-381 D13A): T1 sequence (Q8NNK8 1-381 S205G) with D13A, G205S

In experiment [6] the target is T6, PimB′ (Corynebacterium glutamicum PimB′, NCgl2106) (Corynebacterium glutamicum, UniProt Q8NNK8, G20W).
T6 sequence (Q8NNK8 1-381 G20W): T1 sequence (Q8NNK8 1-381 S205G) with G20W, G205S

Experiment [7] has as its target T7, PimB′ (Corynebacterium glutamicum PimB′, NCgl2106) (Corynebacterium glutamicum, UniProt Q8NNK8, R206S).
T7 sequence (Q8NNK8 1-381 R206S): T1 sequence (Q8NNK8 1-381 S205G) with G205S, R206S

Experiment [8] concerns the target T8, PimB′ (Corynebacterium glutamicum PimB′, NCgl2106) (Corynebacterium glutamicum, UniProt Q8NNK8, D13N).
T8 sequence (Q8NNK8 1-381 D13N): T1 sequence (Q8NNK8 1-381 S205G) with D13N, G205S

In experiment [9] the target is T9, PimB′ (Corynebacterium glutamicum PimB′, NCgl2106) (Corynebacterium glutamicum, UniProt Q8NNK8, I21A).
T9 sequence (Q8NNK8 1-381 I21A): T1 sequence (Q8NNK8 1-381 S205G) with I21A, G205S

The target in experiment [10] is T10, PimB′ (Corynebacterium glutamicum PimB′, NCgl2106) (Corynebacterium glutamicum, UniProt Q8NNK8).
T10 sequence (Q8NNK8 1-381): T1 sequence (Q8NNK8 1-381 S205G) with G205S

Experiment [11] addresses T11, PimB′ (Corynebacterium glutamicum PimB′, NCgl2106) (Corynebacterium glutamicum, UniProt Q8NNK8, Q22A).
T11 sequence (Q8NNK8 1-381 Q22A): T1 sequence (Q8NNK8 1-381 S205G) with Q22A, G205S

Experiment [12] has as its target T10, PimB′ (Corynebacterium glutamicum PimB′, NCgl2106). This is another data set of the same source.

With `Nc1nc2c(ncn2[C@@H]2O[C@H](COP(=O)(O)OP(=O)(O)O[C@H]3O[C@H](CO)[C@@H](O)[C@H](O)[C@@H]3O)[C@@H](O)[C@H]2O)c(=O)[nH]1` [GDP-Man], the equilibrium dissociation constant (Kd) in experiment [1] turned out to be 18.7 ± 4.6 µM; in experiment [2], 40.2 ± 10.7 µM; in [3] it was 72.4 ± 27.5 µM; in [4] it was 68.7 ± 35.5 µM; in [5], 42.8 ± 11.9 µM; in [6], 21.9 ± 6.4 µM. Also, the Kd was 42.7 ± 9.4 µM in [7]; 30.1 ± 6.9 µM in experiment [8]; 56 ± 14.5 µM in [9]; 19 ± 4.6 µM in experiment [10]; 60.3 ± 22.8 µM in experiment [11].

In turn, `Nc1nc2c(ncn2[C@@H]2O[C@H](COP(=O)(O)OP(=O)(O)O)[C@@H](O)[C@H]2O)c(=O)[nH]1` [GDP] yielded an equilibrium dissociation constant (Kd) in experiment [12] of 36.5 ± 6.9 µM.
